Measured values published in patent US20110015080A1, “Solution-based methods for RNA expression profiling” (MASSACHUSETTS INSTITUTE OF TECHNOLOGY, priority 2005, published 2011).
Where “and” joins values, the source holds several entries; their conditions need not be identical. Equal values may be shown once.

Test system: HL60 (human promyelocytic leukemia) cells
Experiment: LMA-FlexMAP bead-based gene expression signature analysis of total RNA from HL60 cells treated with tretinoin or DMSO (ninety transcripts); as to FlexMap signal, transcript NM 000875 (LUA#55): test concentration or dose not given here
[1] = Experiment 2, HL60 cells, Tretinoin-treated, replicate columns
[2] = Table 6B Experiment 1, tretinoin-treated HL60 samples, one column per replicate

CC1=C(/C=C/C(C)=C/C=C/C(C)=C/C(=O)O)C(C)(C)CCC1 [tretinoin, all-trans-retinoic acid]
FlexMap signal, transcript NM_000698 (LUA#14) [1]: 1787 and 1685 and 64.5 and 1902 and 539 and 1934.5 and 1914.5 and 1773 and 1769 and 1871.5
FlexMap signal, transcript NM_000875 (LUA#55) [1]: 89 and 104 and 28.5 and 81 and 36 and 79 and 80 and 85 and 90 and 87.5
FlexMap signal, transcript NM_000962 (LUA#7) [1]: 873 and 822.5 and 65 and 900 and 253 and 845 and 904.5 and 846 (2×) and 930
FlexMap signal, transcript NM_001974 (LUA#11) [1]: 494 and 340.5 and 30 and 516.5 and 92.5 and 533 and 515 and 493 and 470 and 539
FlexMap signal, transcript NM_002358 (LUA#53) [1]: 109 (2×) and 94 and 33.5 and 103 (2×) and 39 and 96 and 97 and 119
FlexMap signal, transcript NM_003825 (LUA#8) [1]: 721 and 689.5 and 102 and 772 and 220 and 800 and 733 and 738 and 727 and 764
FlexMap signal, transcript NM_004514 (LUA#46) [1]: 399 and 424.5 and 25 and 469 and 99 and 428 and 445 and 422 and 420.5 and 460
FlexMap signal, transcript NM_004631 (LUA#52) [1]: 399 (2×) and 397 and 38.5 and 391 and 97 and 396 and 399.5 and 401.5 and 424
FlexMap signal, transcript NM_004782 (LUA#4) [1]: 1036.5 and 932 and 45 and 979.5 and 253 and 1005 and 1030 and 914 and 929 and 1044
FlexMap signal, transcript NM_005736 (LUA#1) [1]: 384.5 and 298.5 and 36.5 and 390 and 90.5 and 408 and 411 and 385 and 392 and 414.5
FlexMap signal, transcript NM_006457 (LUA#13) [1]: 131 (2×) and 121 and 43 and 115.5 (2×) and 65 and 118 and 120 and 117
FlexMap signal, transcript NM_006773 (LUA#47) [1]: 284 and 354.5 and 28 and 270 and 68 and 273 and 283 and 272 and 279 and 305
FlexMap signal, transcript NM_006948 (LUA#51) [1]: 980 and 887 and 51 and 974 and 248 and 1014 and 1006 and 963.5 and 958.5 and 1024.5
FlexMap signal, transcript NM_007331 (LUA#50) [1]: 102 and 115 (2×) and 24 and 47 and 95.5 and 96 and 97.5 and 94.5 and 111.5
FlexMap signal, transcript NM_013402 (LUA#54) [1]: 89 and 83 and 30 and 82 and 46 and 90.5 and 95.5 and 85 and 84.5 and 97
FlexMap signal, transcript NM_014288 (LUA#48) [1]: 63.5 and 55 and 22 and 52 and 33 and 60 and 57 (3×) and 65
FlexMap signal, transcript NM_014962 (LUA#5) [1]: 691 and 618 and 39 and 595.5 and 160 and 670.5 and 705 and 677.5 and 678 and 710
FlexMap signal, transcript NM_016061 (LUA#9) [1]: 450 and 440 and 48 and 458 and 121 and 470.5 and 464 and 468 and 459 and 503.5
FlexMap signal, transcript NM_017440 (LUA#49) [1]: 91 and 29 and 88 and 42 and 78 and 97 and 87.5 and 84 and 86.5
FlexMap signal, transcript NM_018217 (LUA#3) [1]: 980 and 922 and 48 and 935 and 258 and 992 and 1053.5 and 947 and 966 and 1022.5
FlexMap signal, transcript NM_032571 (LUA#15) [1]: 228 (2×) and 244 (2×) and 22.5 and 58.5 and 234 and 208 and 205 and 239
FlexMap signal, transcript NM_173823 (LUA#6) [1]: 760 and 592 and 36 and 736 and 182.5 and 758 and 734.5 and 658.5 and 681 and 816
FlexMap signal of transcript NM_014288 (LUA#48) (Experiment 3, tretinoin-treated samples, one column per sample): 45 and 48 and 30 and 25 and 30.5 and 39 and 43 and 33
NM_000070 (FlexMap ID LUA#2) signal [2]: 329.5 and 386 and 269.5 and 370 and 104.5 and 354 and 372 and 159 and 336 and 318
NM_000153 (FlexMap ID LUA#10) signal [2]: 357.5 and 432 and 324 and 419.5 and 120 and 384 and 408 and 170 and 374 and 377.5
NM_000632 (FlexMap ID LUA#12) signal [2]: 323.5 and 222 and 292 and 78 and 307 and 277 and 114 and 275.5 and 251
NM_000698 (FlexMap ID LUA#14) signal [2]: 1562 and 1779 and 1332.5 and 1743 and 503 and 1688 and 1686.5 and 787 and 1606 and 1552.5
NM_000875 (FlexMap ID LUA#55) signal [2]: 63 and 68 and 53 and 62 (2×) and 36 and 65 and 48 and 74 and 54
NM_000962 (FlexMap ID LUA#7) signal [2]: 754 and 894 and 663 and 823 and 294 and 793.5 and 807 and 398 and 772 and 764
NM_001974 (FlexMap ID LUA#11) signal [2]: 403 and 466 and 288 and 435.5 and 95 and 414 and 430 and 141 and 420.5 and 396
NM_002358 (FlexMap ID LUA#53) signal [2]: 99 (2×) and 113 and 72 and 98 (2×) and 53 and 96 and 58 and 85
NM_003825 (FlexMap ID LUA#8) signal [2]: 557 and 658 and 476.5 and 630.5 and 256 and 580 and 609 and 318 and 584 and 550
NM_004514 (FlexMap ID LUA#46) signal [2]: 312.5 and 356 and 262 and 320 and 96 and 306 and 313 and 144.5 and 302 and 286
NM_004631 (FlexMap ID LUA#52) signal [2]: 304 and 352 and 238 and 334 and 103 and 331 and 310.5 and 135.5 and 326 and 289.5
NM_004782 (FlexMap ID LUA#4) signal [2]: 790.5 and 907 and 635 and 855 (2×) and 232 and 870 and 812.5 and 341 and 750
NM_005736 (FlexMap ID LUA#1) signal [2]: 308 and 336 and 319 and 351 and 89 and 329 and 319.5 and 138.5 and 309 and 279
NM_006457 (FlexMap ID LUA#13) signal [2]: 144 and 135 (2×) and 113 and 78 and 123 and 136 and 90 and 151.5 and 132
NM_006773 (FlexMap ID LUA#47) signal [2]: 213 (2×) and 257 and 139 and 56.5 and 216 and 219 and 79.5 and 235 and 174
NM_006948 (FlexMap ID LUA#51) signal [2]: 742 and 840.5 and 592.5 and 791.5 and 224 and 773.5 and 795 and 325 and 762 and 716.5
NM_007331 (FlexMap ID LUA#50) signal [2]: 85.5 and 97 and 70 and 81 and 42 and 96 and 87 and 53 and 91 and 80
NM_013402 (FlexMap ID LUA#54) signal [2]: 72 (2×) and 71 and 62 and 75 (2×) and 43 and 75.5 and 48.5 and 71.5
NM_014288 (FlexMap ID LUA#48) signal [2]: 64 and 62 and 55 and 61 and 45 and 60 (2×) and 56 and 41.5 and 59
NM_014962 (FlexMap ID LUA#5) signal [2]: 537 and 575.5 and 414.5 and 556 and 171.5 and 552.5 and 567 and 232 and 576.5 and 516.5
NM_016061 (FlexMap ID LUA#9) signal [2]: 362.5 and 422 and 297 and 401 and 128 and 385 and 382 and 173 and 357.5 and 357
NM_017440 (FlexMap ID LUA#49) signal [2]: 59 and 66 and 55 and 68 (2×) and 40 and 67 and 48.5 and 66.5 and 62
NM_018217 (FlexMap ID LUA#3) signal [2]: 747 and 886 and 659.5 and 824 and 225.5 and 823 and 800 and 343 and 785 and 727
NM_032571 (FlexMap ID LUA#15) signal [2]: 144 and 188 and 125 and 161 and 60 and 169 and 164.5 and 81 and 172.5 and 146
NM_173823 (FlexMap ID LUA#6) signal [2]: 591.5 and 718 and 482.5 and 654 and 186.5 and 675 and 646 and 291 and 604.5 and 573
